Like-named read-outs stand apart in the source and are kept apart here.
Experiments:
Format in all cases: biochemical
[1] = test system: human stromelysin-1 (catalytic domain); assay: IC50 for inhibition of the catalytic domain of human stromelysin-1, fluorogenic substrate assay (Strom-1); details: pH 6.5, ambient temperature, 60 min, 10 μM substrate, 10 nM enzyme
Method: (§1) Human 72 kDa gelatinase was purified from the conditioned media of fetal lung fibroblasts according to known methods. The enzyme was stored in the pro-form at -80° C. and activated prior to use by treatment with 1 mM aminophenyl mercuriacetate (APMA) for 1 hour at 37° C., then dialyzed against reaction buffer before use. Human neutrophil gelatinase (95 kDa gelatinase) was purified from conditioned media of NSO-cells according to known methods. This enzyme was likewise stored in the zymogen form at -80° C. It was activated by treatment with trypsin (5 μg/mL) for 1 hour at 37° C., followed by addition of bovine pancreatic trypsin inhibitor to 50 μg/mL. Human matrilysin was obtained from a bacterial expression system as a ubiquitin fusion construct Welch, A. R., Holman, C. M., Browner, M. F., Gehring, M. R., Kan, C.-C., & Van Wart, H. E. (1995) Arch. Biochem. Biophys. 324, 59-64. The mature form of matrilysin was purified following activation with 1 mM APMA (1 hour, 37° C.) and the active enzyme stored at -80° C. The catalytic domain of human collagenase-3 was obtained in a manner analogous to that for matrilysin. The final form of collagenase-3 used for these studies consisted of the residues Tyr104 -Asn274 from the full length collagenase sequence. The catalytic domain of human stromelysin-1 was produced via E. coli expression and purification according to known methods; the activated, catalytic domain was stored at -80° C.
The assay methods utilized the fluorogenic substrate: Dnp-Pro-Cha-Gly-Cys(Me)-His-Ala-Lys(NMA)-NH2. […]
Measurements for stromelysin-1: the catalytic domain of stromelysin-1 was tested using the same substrate but with a modified protocol. […] The reaction was started by addition of an aliquot of enzyme stock and the generated fluorescence was read directly after 60 minutes. […] The % inh[I] was calculated as: […]
where Fluor[I]=corrected fluorescence at 60 minutes observed for inhibitor concentration [I]
FluorPC=corrected fluorescence at 60 minutes observed for the positive control […]

[2] = biological target: T1, human collagenase-3 (catalytic domain) (Homo sapiens, UniProt P45452); assay: IC50 for inhibition of the catalytic domain of human collagenase-3, fluorogenic peptide cleavage assay (Coll-3)
T1 construct: ubiquitin (cleaved yes); made in house; host or cells: bacterial expression system (analogous to matrilysin)
Method: Human matrilysin was obtained from a bacterial expression system as a ubiquitin fusion construct Welch, A. R., Holman, C. […] The mature form of matrilysin was purified following activation with 1 mM APMA (1 hour, 37° C.) and the active enzyme stored at -80° C. The catalytic domain of human collagenase-3 was obtained in a manner analogous to that for matrilysin. The final form of collagenase-3 used for these studies consisted of the residues Tyr104 -Asn274 from the full length collagenase sequence.
For matrilysin and the catalytic domain of collagenase-3, the buffer composition was pH 7.5, 50 mM Hepes, 200 mM NaCl, 5 mM CaCl2, 20 μM ZnCl2, 0.05% (wt/v) Brij-35. The final substrate concentration in all cases 10 μM. The approximate concentrations for the enzymes were: gelatinase-A, 0.8 nM; gelatinase-B, 0.5 nM; collagenase-3, 0.4 nM; matrilysin, 10 nM. To perform the peptide cleavage assay, the vessel containing buffer and compound of formula I were pre-equilibrated at 37° C., then the reaction initiated by successive addition of concentrated stocks of enzyme and substrate, and incubation at 37° C. was continued. At successive time points between 30 and 120 minutes, 50 μL aliquots of the assays were pulled and the enzymatic reaction stopped by addition to 150 μL of 30 mM EDTA (pH 7.4) in the well of a black, flat bottom microtiter plate.
% inh[I]=100(1-rate[I]/ratePC)
(§2) % inh[I]=percent inhibition at inhibitor concentration [I]
(§3) rate[I]=rate at inhibitor concentration [I]
ratePC=rate of positive control […]

[3] = biological target: T2, gelatinase-A (human 72 kDa gelatinase) (Homo sapiens, UniProt P08253); assay: IC50 for inhibition of gelatinase-A (human 72 kDa gelatinase), fluorogenic peptide cleavage assay (GelA)
T2 construct: endogenous in cells; host or cells: fetal lung fibroblasts (purified from conditioned media)
T2 sequence (P08253 110-660): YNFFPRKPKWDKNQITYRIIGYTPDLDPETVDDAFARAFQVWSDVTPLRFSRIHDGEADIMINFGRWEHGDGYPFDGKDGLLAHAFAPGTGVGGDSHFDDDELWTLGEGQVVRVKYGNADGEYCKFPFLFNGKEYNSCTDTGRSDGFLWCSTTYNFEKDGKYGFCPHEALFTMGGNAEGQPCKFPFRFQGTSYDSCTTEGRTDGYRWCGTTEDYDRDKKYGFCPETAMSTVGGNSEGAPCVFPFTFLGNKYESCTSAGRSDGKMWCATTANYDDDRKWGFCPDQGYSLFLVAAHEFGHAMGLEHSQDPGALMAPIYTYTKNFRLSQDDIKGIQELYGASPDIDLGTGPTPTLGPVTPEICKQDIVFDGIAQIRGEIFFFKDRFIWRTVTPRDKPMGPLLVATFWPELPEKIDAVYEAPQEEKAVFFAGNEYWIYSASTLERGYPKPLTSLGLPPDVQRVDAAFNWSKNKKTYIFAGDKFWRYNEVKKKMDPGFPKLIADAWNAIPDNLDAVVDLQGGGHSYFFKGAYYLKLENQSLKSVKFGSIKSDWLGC
Method: as §1
The assay methods utilized the fluorogenic substrate: Dnp-Pro-Cha-Gly-Cys(Me)-His-Ala-Lys(NMA)-NH2. (Dnp=dinitro phenyl; Cha=cyclohexylalanine; Cys(Me)=S-methyl cysteine, Lys(NMA)=N^ε-methyl-anthranoyl-1-lysine). Stock solutions were prepared in DMSO. Stock solutions of compounds of formula I (inhibitor) were also prepared in DMSO.
For gelatinase-A and gelatinase-B, the buffer was pH 7.5, 50 mM TrisHCl, 200 mM NaCl, 5 mM CaCl2, 20 μM ZnCl2, 0.05% (wt/v) Brij-35. For matrilysin and the catalytic domain of collagenase-3, the buffer composition was pH 7.5, 50 mM Hepes, 200 mM NaCl, 5 mM CaCl2, 20 μM ZnCl2, 0.05% (wt/v) Brij-35. The final substrate concentration in all cases 10 μM. The approximate concentrations for the enzymes were: gelatinase-A, 0.8 nM; gelatinase-B, 0.5 nM; collagenase-3, 0.4 nM; matrilysin, 10 nM. […] The extent of substrate conversion was determined by reading the fluorescence of the stopped reactions (excitation wavelength: 355 nm; emission wavelength: […]).
A rate at each inhibitor concentration was obtained from a linear least squares fit to the fluorescence time course. The percent inhibition at inhibitor concentration [I] was calculated as: […]

[4] = biological target: T3, gelatinase-B (human neutrophil gelatinase, 95 kDa gelatinase) (Homo sapiens, UniProt P14780); assay: IC50 for inhibition of gelatinase-B (human neutrophil gelatinase, 95 kDa), fluorogenic peptide cleavage assay (GelB)
T3 construct: made in house; host or cells: NSO-cells (purified from conditioned media)
T3 sequence (P14780 107-707 limits assumed): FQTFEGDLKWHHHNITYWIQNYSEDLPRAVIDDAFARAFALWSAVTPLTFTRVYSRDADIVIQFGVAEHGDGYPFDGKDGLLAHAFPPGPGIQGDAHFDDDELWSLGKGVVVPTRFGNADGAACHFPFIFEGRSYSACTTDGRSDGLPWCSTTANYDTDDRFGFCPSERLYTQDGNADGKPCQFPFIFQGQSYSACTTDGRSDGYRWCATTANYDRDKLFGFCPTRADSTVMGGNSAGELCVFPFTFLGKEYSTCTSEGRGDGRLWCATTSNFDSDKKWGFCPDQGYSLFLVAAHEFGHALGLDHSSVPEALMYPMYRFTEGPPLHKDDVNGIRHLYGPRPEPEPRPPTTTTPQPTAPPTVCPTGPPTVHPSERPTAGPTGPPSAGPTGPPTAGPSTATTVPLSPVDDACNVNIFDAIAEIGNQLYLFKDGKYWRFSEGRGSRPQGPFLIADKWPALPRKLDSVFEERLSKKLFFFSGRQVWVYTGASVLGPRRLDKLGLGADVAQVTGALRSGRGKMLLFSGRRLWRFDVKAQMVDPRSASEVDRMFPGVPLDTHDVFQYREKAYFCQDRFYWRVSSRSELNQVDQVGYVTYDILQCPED
Method: For gelatinase-A and gelatinase-B, the buffer was pH 7.5, 50 mM TrisHCl, 200 mM NaCl, 5 mM CaCl2, 20 μM ZnCl2, 0.05% (wt/v) Brij-35. […] The final substrate concentration in all cases 10 μM. The approximate concentrations for the enzymes were: gelatinase-A, 0.8 nM; gelatinase-B, 0.5 nM; collagenase-3, 0.4 nM; matrilysin, 10 nM. To perform the peptide cleavage assay, the vessel containing buffer and compound of formula I were pre-equilibrated at 37° C., then the reaction initiated by successive addition of concentrated stocks of enzyme and substrate, and incubation at 37° C. was continued. At successive time points between 30 and 120 minutes, 50 μL aliquots of the assays were pulled and the enzymatic reaction stopped by addition to 150 μL of 30 mM EDTA (pH 7.4) in the well of a black, flat bottom microtiter plate. The extent of substrate conversion was determined by reading the fluorescence of the stopped reactions (excitation wavelength: 355 nm; emission wavelength: 460 nM).
% inh[I]=100(1-rate[I]/ratePC)
as §2, §3
ratePC=rate of positive control […]

[5] = catalytic domain, pH 7.5, 37° C., 10 μM substrate, 0.4 nM enzyme, 5% DMSO, read-out: IC50 Coll-3

SMILES | IC50 [1] | IC50 [2, 5] | IC50 [3] | IC50 ([4]; pH 7.5, 37° C., 10 μM substrate, 0.5 nM enzyme, 5% DMSO, read-out: IC50 GelB) | IC50 [4] | IC50 ([1]; value in nM) | IC50 [2] | IC50 ([3]; pH 7.5, 37° C., 10 μM substrate, 0.8 nM enzyme, 5% DMSO, read-out: IC50 GelA)
CC1(c2ccc(Oc3ccccc3)cc2)C(=O)NC(=O)NC1=O [A, 5-methyl-5-(4-phenoxyphenyl)pyrimidine-2,4,6-trione] | 2000 nM | 65 nM | 80 nM | 52 nM |  |  |  | 
CCCCCCC1(c2ccc(Oc3ccccc3)cc2)C(=O)NC(=O)NC1=O [B, 5-hexyl-5-(4-phenoxyphenyl)pyrimidine-2,4,6-trione] | 2000 nM | 78 nM | 67 nM |  | 50 nM |  |  | 
O=C1NC(=O)C(COCc2ccccc2)(c2ccc(Oc3ccccc3)cc2)C(=O)N1 [C, 5-benzyloxymethyl-5-(4-phenoxyphenyl)pyrimidine-2,4,6-trione] |  |  | 26 nM |  | 23 nM | 930 nM | 47 nM | 
O=C1NC(=O)C(CCO)(c2ccc(Oc3ccccc3)cc2)C(=O)N1 [D, 5-(2-hydroxyethyl)-5-(4-phenoxyphenyl)pyrimidine-2,4,6-trione] |  |  |  |  |  |  |  | 59 nM

— US6265578A, “Pyrimidine-2,4,6-triones” (Hoffmann-La Roche Inc., priority 2000, dated 2001)
